Entries after “also recorded” stand apart in the source; their conditions may differ. Where two headings read alike, the source gives them in different places.
Assays:
[1] = biological target: T1, dopamine uptake by striatal synaptosomes (Mus musculus, UniProt Q61327); experiment: Dopamine reuptake into striatal synaptosomes; type: biochemical
T1 construct: C57B6 mice (aged 6–8 weeks) were decapitated and striatum were dissected from both sides of the brain; from tissue; host or cells: striatal synaptosomes of C57B6 mice
Protocol: All animal work was conducted in adherence to OSU IACUC approved protocols and guidelines for animal welfare. C57B6 mice (aged 6–8 weeks) were decapitated and striatum were dissected from both sides of the brain and stored on ice. The tissues were placed in ice-cold Krebs'-Ringer's solution buffer (KRB) (in mM: 125 NaCl, 1.2 KCl, 1.2 MgSO4, 1.2 CaCl2, 22 NaHCO3, 1 NaH2PO4, and 10 glucose, adjusted to pH 7.4) with an additional 0.32 M sucrose. Tissue samples were homogenized by using a glass homogenizing tube and with a Teflon-coated pestle. The samples were centrifuged for 10 min at 1,000xg. Supernatant was collected and the debris pellet was discarded. Supernatant was centrifuged for 15 min at 16,000x g. […] Amounts of [^3H]-labeled dopamine accumulated were quantitated by liquid-scintillation counting. All experiments were performed in triplicates. Synaptosomes with the highest dose of inhibitor were used as background controls and radioactivity associated with these wells were subtracted from the total scintillation counts of all wells.
The IC50 values were determined by nonlinear regression analyses of experimental data using GraphPad Prism 3.0 (San Diego, CA). IC50 values presented are averages ± standard error of means (SEM) calculated from 3 independent uptake experiments or recordings of 4 different DRG neurons. Statistical analyses for the difference between the IC50 values of the two drugs were performed by Student's paired t-test using SPSS 17.0 (Chicago, IL).

mouse NET = mouse NET (Mus musculus, UniProt O55192); experiment: Norepinephrine uptake into HeLa cells transiently transfected with mNET; type: cell-based
DRG neuron Na+ channels = experiment: Whole-cell voltage clamp recording of sodium channel currents in dorsal root ganglion neurons; type: cell-based, mouse; conditions: for IC50: isolated mouse DRG neurons, whole-cell patch clamp, held at -70 mV, read-out: IC50, inhibition of DRG neuron Na+ channels
Protocol: Dorsal root ganglion (DRG) neurons (T1–T10) from adult male C57B6 mice (aged 6–8 weeks) were isolated as per Malin et al. Briefly, ganglia were dissected under stereo microscope and washed in Ca^2+/Mg^2+-free Hank's Buffered Salt Solution (HBSS). DRGs were digested enzymatically, first with papain and then collagenase II and dispase II, each for 10 min at 37°C. Digested DRGs were then triturated in culture media (F-12 supplemented with 10% FBS and 5 mg/ml penicillin/streptomycin) by a fire-polished Pasteur pipette until solution becomes cloudy. Isolated DRG neurons were plated on poly-ornithine coated glass cover slips and maintained in a 37°C, 5% CO2 incubator. Individual DRG neurons were recorded after overnight culture.
Plated coverslips were centered in a perfusion chamber filled with extracellular solution (ECS) containing (in mM): 140 NaCl, 5 KCl, 2 CaCl2, 1 MgCl2, 10 glucose, 10 HEPES, pH 7.4. Cocaine and CM were dissolved in ECS and delivered via a pressure-driven perfusion system (SmartSquirt 8, AutoMate Scientific) with the tip positioned so the DRG neuron being recorded was fully within the direct stream of perfusate. Recording pipettes were pulled from micropipette glass (World Precision Instruments, Sarasota FL) to 2–4 MΩ when filled with an intracellular solution containing (in mM): 140 […], 1 CaCl2, 2 MgCl2, 11 EGTA, 10 HEPES, 2 Mg2ATP, pH 7.2). Whole-cell recordings were made using an EPC10 amplifier and the PatchMaster 2.2.0 software (both from HEKA Electronik, Germany). As soon as the whole-cell configuration was established, fast and slow capacitances were cancelled and the holding potential (Vh) was set to -70 mV. A step protocol ([…] from −70 mV to 10 mV with 5 mV increment for each step) was applied to determine the testing voltage (Vt) that generated the maximal inward current in the following experiment. […] Only one cell per cover slip was recorded to avoid possible drug contamination of other cells. […]
A range of drug concentrations, starting from low to high, were tested for each DRG neuron. The sodium channel currents were recorded 30 s before the drug application, during the 30 s drug application, and 30–60 s after drug washout by perfusion with ECS. For each set of tests, current amplitude was measured by subtracting the baseline value from the peak current. […] The currents measured after the drug washout were used to confirm the complete recovery before testing the next drug concentration.
The IC50 values were determined by nonlinear regression analyses of experimental data using GraphPad Prism 3.0 (San Diego, CA). IC50 values presented are averages ± standard error of means (SEM) calculated from 3 independent uptake experiments or recordings of 4 different DRG neurons. […]

mouse DAT = mouse DAT (Mus musculus, UniProt Q61327); experiment: Dopamine uptake into HeLa cells transiently transfected with mDAT; type: cell-based
mouse SERT = mouse SERT (Mus musculus, UniProt Q60857); experiment: Serotonin uptake into HeLa cells transiently transfected with mSERT; type: cell-based
sodium channels = tested on: sodium channels; design: method as in PMID 16406254; conditions: cited from earlier work

Sequence of mouse SERT (Q60857 whole entry): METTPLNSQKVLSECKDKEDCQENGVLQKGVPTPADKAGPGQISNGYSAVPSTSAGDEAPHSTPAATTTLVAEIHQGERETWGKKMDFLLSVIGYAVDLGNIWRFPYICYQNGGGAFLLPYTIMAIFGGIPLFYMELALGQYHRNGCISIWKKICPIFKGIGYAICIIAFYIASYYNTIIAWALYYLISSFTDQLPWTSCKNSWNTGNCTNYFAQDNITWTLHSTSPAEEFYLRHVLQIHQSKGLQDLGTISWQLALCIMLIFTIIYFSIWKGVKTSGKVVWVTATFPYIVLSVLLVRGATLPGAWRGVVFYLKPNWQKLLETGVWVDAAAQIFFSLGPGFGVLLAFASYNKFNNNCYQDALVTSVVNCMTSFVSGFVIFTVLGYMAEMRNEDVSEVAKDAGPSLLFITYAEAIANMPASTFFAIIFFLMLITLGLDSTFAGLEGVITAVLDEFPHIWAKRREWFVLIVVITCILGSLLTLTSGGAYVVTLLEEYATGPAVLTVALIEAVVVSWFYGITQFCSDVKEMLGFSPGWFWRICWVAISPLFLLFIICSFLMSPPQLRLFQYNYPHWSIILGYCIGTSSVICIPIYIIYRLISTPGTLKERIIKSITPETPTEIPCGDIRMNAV
Sequence of mouse NET (O55192 whole entry): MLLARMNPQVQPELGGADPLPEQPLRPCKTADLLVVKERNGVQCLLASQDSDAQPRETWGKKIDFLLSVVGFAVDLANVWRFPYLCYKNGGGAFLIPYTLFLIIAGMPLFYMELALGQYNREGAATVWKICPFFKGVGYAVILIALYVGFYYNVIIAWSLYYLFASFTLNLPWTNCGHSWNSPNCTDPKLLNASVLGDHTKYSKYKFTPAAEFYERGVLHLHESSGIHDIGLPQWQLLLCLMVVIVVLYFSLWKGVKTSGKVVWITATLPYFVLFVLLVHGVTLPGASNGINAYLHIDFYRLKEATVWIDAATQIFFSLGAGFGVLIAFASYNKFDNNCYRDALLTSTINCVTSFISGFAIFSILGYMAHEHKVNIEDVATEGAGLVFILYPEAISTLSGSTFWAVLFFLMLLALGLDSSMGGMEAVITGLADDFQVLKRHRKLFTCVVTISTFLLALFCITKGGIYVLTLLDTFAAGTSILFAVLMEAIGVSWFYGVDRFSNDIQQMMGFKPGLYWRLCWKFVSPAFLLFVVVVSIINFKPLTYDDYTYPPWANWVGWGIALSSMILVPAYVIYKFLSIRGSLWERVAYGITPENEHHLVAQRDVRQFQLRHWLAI
T1 sequence (Q61327 whole entry): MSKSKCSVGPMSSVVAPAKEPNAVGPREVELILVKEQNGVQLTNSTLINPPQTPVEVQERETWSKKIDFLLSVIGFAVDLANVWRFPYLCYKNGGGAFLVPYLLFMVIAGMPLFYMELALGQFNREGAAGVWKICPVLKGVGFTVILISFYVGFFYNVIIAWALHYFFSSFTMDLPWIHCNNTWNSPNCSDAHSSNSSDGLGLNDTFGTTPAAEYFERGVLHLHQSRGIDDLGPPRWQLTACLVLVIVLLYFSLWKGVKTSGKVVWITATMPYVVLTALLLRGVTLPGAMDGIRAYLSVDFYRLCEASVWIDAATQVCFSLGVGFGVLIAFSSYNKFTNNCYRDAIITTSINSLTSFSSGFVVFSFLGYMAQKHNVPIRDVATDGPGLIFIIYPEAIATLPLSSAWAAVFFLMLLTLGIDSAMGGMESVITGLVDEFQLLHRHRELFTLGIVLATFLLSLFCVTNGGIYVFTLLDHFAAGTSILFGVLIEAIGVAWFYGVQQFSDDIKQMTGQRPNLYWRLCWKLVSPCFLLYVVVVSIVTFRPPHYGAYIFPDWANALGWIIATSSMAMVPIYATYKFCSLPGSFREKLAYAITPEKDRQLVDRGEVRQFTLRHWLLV
Sequence of mouse DAT (Q61327 whole entry): as above

| Structure (SMILES) | ratio of IC50 values, cocaine methiodide / cocaine, striatal synaptosomes ([1]; dopamine uptake, mouse striatal synaptosomes) | IC50 ([1]; mouse striatum synaptosomes, 60 nM [3H]dopamine, 100 µM desipramine, mean ± SEM, 3 experiments, listed as CM, read-out: IC50, inhibition of dopamine uptake by striatal synaptosomes) | IC50 ([1]; mouse striatum synaptosomes, 60 nM [3H]dopamine, 100 µM desipramine, mean ± SEM, 3 experiments, read-out: IC50, inhibition of dopamine uptake by striatal synaptosomes) | ratio of IC50 values, cocaine methiodide / cocaine, mNET (mouse NET; transfected HeLa cells) | IC50 (mouse NET; transfected HeLa cells, 60 nM [3H] substrate, mean ± SEM, 3 experiments, read-out: IC50, inhibition of norepinephrine uptake by mNET) | effect on sodium channel currents (peak inward current) in DRG neurons (DRG neuron Na+ channels; concentrations up to 3 mM, the highest tested, n = 4 cells, p>0.05, listed as CM) | ratio of IC50 values, cocaine methiodide / cocaine, mDAT (mouse DAT; transfected HeLa cells) | IC50 (mouse DAT; transfected HeLa cells, 60 nM [3H] substrate, mean ± SEM, 3 experiments, read-out: IC50, inhibition of dopamine uptake by mDAT) | ratio of IC50 values, cocaine methiodide / cocaine, mSERT (mouse SERT; transfected HeLa cells) | IC50 (mouse SERT; transfected HeLa cells, 60 nM [3H] substrate, mean ± SEM, 3 experiments, read-out: IC50, inhibition of serotonin uptake by mSERT) | potency for blocking sodium channels (sodium channels) | IC50 [1] | IC50 (mouse NET) | sodium channel IC50 relative to those for the monoamine transporters (DRG neuron Na+ channels; cocaine, DRG Na+ channels vs DAT, NET, SERT) | IC50 (DRG neuron Na+ channels; n = 4 cells, listed as cocaine) | IC50 (DRG neuron Na+ channels; n = 4 cells) | IC50 (mouse DAT) | IC50 (mouse SERT) |
| --- | --- | --- | --- | --- | --- | --- | --- | --- | --- | --- | --- | --- | --- | --- | --- | --- | --- | --- |
| COC(=O)[C@H]1[C@@H](OC(=O)c2ccccc2)C[C@@H]2CC[C@H]1[N+]2(C)C.[I-] [Cocaine Methiodide, Cocaine methiodide] | 33 fold | 11.7 ± 5.1 µM | 11.5 ± 5.1 µM | 31 fold | 20.9 ± 3.1 µM | very little inhibition; also recorded: no observable effect; also recorded: little observable effect; also recorded: does not inhibit | 184 fold | 83.2 ± 2.1 µM | 123 fold | 84.3 ± 4.8 µM | – | – | – | – | – | – | – | – |
| COC(=O)[C@H]1[C@@H](OC(=O)c2ccccc2)C[C@@H]2CC[C@H]1N2C [Cocaine] | – | – | – | – | – | – | – | – | – | – | ≥ 50 µM | 0.35 ± 0.11 µM | 0.67 ± 0.09 µM | roughly 100 fold | 85 µM | 84.8 ± 5.9 µM | 0.45 ± 0.11 µM | 0.68 ± 0.39 µM |
